Results taken from patent publication US6800645B1, “Substituted azabicyclic compounds” (Aventis Pharma Limited, priority 1996, dated 2004).

Question: With COc1ccc(Cn2cc(C)c3ccc(C(=O)c4ccccc4)cc32)cc1 [Example 24, [1-(4-Methoxy-benzyl)-3-methyl-1H-indol-6-yl]-phenyl methanone] as the compound, how does the melting point read?
Answer: The melting point was 146 to 147 °C.

Question: Which melting point does the source give for Cc1ccc(S(=O)(=O)n2cc(C=O)c3ccc(C(=O)Nc4c(Cl)cncc4Cl)cc32)cc1 [Example 17, N-(3,5-Dichloro-pyridin-4-yl)-3-formyl-1-(toluene-4-sulphonyl)-1H-indole-6-carboxamide] here?
Answer: Its melting point is 245 °C.

Question: Which melting point does the source give for COCc1nc2c(OC)ccc(C(O)(Cc3ccncc3)Cc3ccncc3)c2[nH]1 [Example 5, 1,3-bis-(4-pyridyl)-2-(7-methoxy-2-methoxymethyl-3H-benzimidazol-4-yl)-propan-2-ol] here?
Answer: The melting point was 210 °C (dec.).

Question: Which melting point does the source give for COCc1nc2c(OC)ccc(C(=O)Cc3ccncc3)c2[nH]1 [Example 4, 1-(7-Methoxy-2-methoxymethyl-3H-benzimidazol-4-yl)-2-(4-pyridyl)ethanone] here?
Answer: The melting point was 218 to 220 °C (dec.).
